According to patent US5506102A (priority 1993, dated 1996):

Legend:
[1] = test system: PR; conditions: cited from earlier work
[2] = test system: PR-B (co-expressed with PR-A); experiment: PR-A repression of PR-B mediated MMTV-LUC transcription (co-transfection); type: cell-based, human; conditions: for transcriptional repression: HeLa, FIG. 3B
Description: FIGS 3A-3B are a series of graphs showing CV-1 (FIG. 3A) or HeLa (FIG. 3B) cells that were transiently transfected with either 0.25 g of phPR-A or 0.25 g phPR-B alone, or 0.25 g phPR-B in the presence of increasing concentration of phPR-A together with […] of the MMTV-LUC reporter and […] of pCH110 as an internal control. […] The relative luciferase activity is calculated by dividing the normalized luciferase value at a given point by that obtained in the absence of transfected receptor or ligand. Data shown indicate the mean +/- average deviation from the mean of triplicate estimations;
Cells were seeded in 12-well, 96-well or 10 cm tissue culture plates. […] 20 μg of DNA/ml of transfection buffer were used in each transfection reaction. In this mix, the concentration of the luciferase plasmids and that of the internal control plasmid pCH110 (Pharmacia, Inc.), which contains the gene for the β-galactosidase enzyme, remained constant ([…] of each plasmid DNA), while the receptor plasmid concentration varied as indicated for each experiment. Different amounts of receptor parental plasmid, pSV2-neo (Dr. Bert O'Malley, Baylor College of Medicine, Houston, Tex.) was included to keep constant the total amount of the SV40 enhancer vectors. pGEM4 plasmid DNA (Promega Biotech, Madison, Wis.) was added to balance the total DNA concentration to 20 g/reaction. For the 96-well plate experiments, transfections were performed on a Biomek 1000 Automated Laboratory Workstation (Beckman Instruments, Fullerton, Calif.).
Cells were seeded 24 hours prior to transfection in the fiat-bottom tissue culture plates ([…]) in phenol red-free DMEM containing 10% FCS. […] Using calcium phosphate co-precipitation, DNA solution was added dropwise with vortexing into an equal volume of 2X HBS pH 6.9 (280 mM NaCl. 50 mM HEPES, 1.5 mM Na2 HPO4) and precipitates were allowed to form for 20 minutes. Cells were transfected ( […] of DNA mix/well) for 6 hours and then washed with phosphate-bufferedsaline (PBS) to remove the precipitate. Cells were incubated for an additional 24 hours in phenol red-free medium containing 10% charcoal-treated FCS, with or without hormones as indicated in the text. Cell extracts were prepared as described by Berger et al., Supra, and assayed for luciferase and β-galactosidase activities. All determinations were performed in triplicates in at least two independent experiments, and were normalized for transfection efficiency by using β-galactosidase as an internal control.

[3] = biological target: T1, PR-A (Homo sapiens, UniProt P06401); experiment: PR-A transactivation of PRE2 tk-LUC; type: cell-based; set-up: PRE2 tk-LUC in CV-1
T1 sequence (P06401 165-933): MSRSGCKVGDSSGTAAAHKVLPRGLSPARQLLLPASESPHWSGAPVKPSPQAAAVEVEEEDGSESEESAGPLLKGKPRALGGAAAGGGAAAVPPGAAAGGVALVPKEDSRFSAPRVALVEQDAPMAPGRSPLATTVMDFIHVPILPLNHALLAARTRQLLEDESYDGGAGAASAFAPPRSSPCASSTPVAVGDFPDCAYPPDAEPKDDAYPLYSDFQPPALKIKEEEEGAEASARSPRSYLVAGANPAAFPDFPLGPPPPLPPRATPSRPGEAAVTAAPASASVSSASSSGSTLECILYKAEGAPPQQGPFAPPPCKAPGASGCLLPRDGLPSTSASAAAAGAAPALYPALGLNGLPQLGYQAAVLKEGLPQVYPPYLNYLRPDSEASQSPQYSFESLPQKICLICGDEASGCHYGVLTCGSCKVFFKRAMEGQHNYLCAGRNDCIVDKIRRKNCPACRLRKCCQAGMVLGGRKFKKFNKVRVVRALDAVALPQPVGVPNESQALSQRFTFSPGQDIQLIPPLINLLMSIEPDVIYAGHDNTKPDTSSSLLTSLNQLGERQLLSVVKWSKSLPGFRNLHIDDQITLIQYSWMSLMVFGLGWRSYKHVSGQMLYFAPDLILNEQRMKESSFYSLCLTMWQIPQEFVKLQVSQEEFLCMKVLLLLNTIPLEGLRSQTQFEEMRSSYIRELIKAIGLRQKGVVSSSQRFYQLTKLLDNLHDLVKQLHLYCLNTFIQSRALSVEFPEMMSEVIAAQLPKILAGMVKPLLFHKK
Description: FIGS. 4A-4B are a series of graphs showing CV-1 ([…]) or HepG2 (FIG. 4B) cells that were transiently transfected with either […] of phPR-B or phPR-A alone, or phPR-B in the presence of increasing concentrations of phPR-A, together with 5 µg/ml of the PRE2 tk-LUC reporter and 5 µg/ml of pCH110 as an internal control. HeLa cells (FIG. 4C) were transfected with either phPR-B or phPR-A together with 5 µg/ml of the pTAT2950 reporter and 5 µg/ml of pCH110 as an internal control. […] The relative luciferase activity is calculated by dividing the normalized luciferase value at a given point by that obtained in the absence of transfected receptor or ligand. The data shown represent the mean +/- average deviation from the mean of triplicate estimations;
Both reporter plasmids were digested with XhoI and HindIII restriction enzymes and a 6.7 Kb fragment from MMTV-LUC and a 0.12 Kb fragment from PRE2 tk-CAT were isolated and ligated, resulting in a plasmid called PRE2 tk-LUC.
Cells were seeded in 12-well, 96-well or 10 cm tissue culture plates. […] 20 μg of DNA/ml of transfection buffer were used in each transfection reaction. […]

| Structure (SMILES) | effect on PR DNA binding [1] | recovery of PR-B mediated transcription ([2]; CV-1, PR-A/PR-B DNA ratio 1:5) [%] | recovery of PR-B mediated transcription ([2]; CV-1, PR-A/PR-B DNA ratio 1:25) [%] | inhibition of MMTV-LUC transcriptional activity ([2]; CV-1, equimolar concentrations of PR-A and PR-B) | transcriptional repression ([2]; 1:1 PR-A/PR-B DNA ratio) [%] | transcriptional repression ([2]; 1:5 PR-A/PR-B DNA ratio) [%] | transcriptional repression ([2]; 1:25 PR-A/PR-B DNA ratio) [%] | effect of coexpression of PR-A and PR-B on MMTV transcription ([2]; HepG2, data not shown) | IC50 ([2]; read-out: progesterone concentration required for half maximal inhibition, CV-1, PR-A mediated repression of PR-B, MMTV) [µM] | PR-A transcriptional activity on PRE2 tk-LUC ([3]; CV-1, 10^-7 M progesterone, FIG. 4A) | PR-A transcriptional activity on PRE2 tk-LUC ([3]; HepG2, 10^-7 M progesterone, FIG. 4B) |
| --- | --- | --- | --- | --- | --- | --- | --- | --- | --- | --- | --- |
| CC#C[C@]1(O)CC[C@H]2[C@@H]3CCC4=CC(=O)CCC4=C3[C@@H](c3ccc(C(C)=O)cc3)C[C@@]21C [ZK112993] | promotes the association of PR with DNA |  |  |  |  |  |  |  |  |  |  |
| CC(=O)[C@H]1CC[C@H]2[C@@H]3CCC4=CC(=O)CC[C@]4(C)[C@H]3CC[C@]12C [progesterone] |  | […] | […] | […] | […] | […] | […] | […] | […] | transcriptionally inactive | activator of transcription |
